Data: ChEMBL document CHEMBL4118122, “Identification and biological evaluation of thiazole-based inverse agonists of RORγt” (Bioorg Med Chem Lett, 2018)

Key:
[1] = target: 5-hydroxytryptamine receptor 7 (Homo sapiens, UniProt P34969); experiment: Displacement of [3H]LSD from human recombinant 5-HT7 receptor at 1 uM after 120 mins by scintillation counting analysis relative to control
[2] = target: Muscarinic acetylcholine receptor M2 (Homo sapiens) (UniProt P08172); experiment: Displacement of [3H]AF-DX 384 from human recombinant M2 receptor at 10 uM after 60 mins by scintillation counting analysis relative to control
Chain of Muscarinic acetylcholine receptor M2 (Homo sapiens) (P08172 whole entry): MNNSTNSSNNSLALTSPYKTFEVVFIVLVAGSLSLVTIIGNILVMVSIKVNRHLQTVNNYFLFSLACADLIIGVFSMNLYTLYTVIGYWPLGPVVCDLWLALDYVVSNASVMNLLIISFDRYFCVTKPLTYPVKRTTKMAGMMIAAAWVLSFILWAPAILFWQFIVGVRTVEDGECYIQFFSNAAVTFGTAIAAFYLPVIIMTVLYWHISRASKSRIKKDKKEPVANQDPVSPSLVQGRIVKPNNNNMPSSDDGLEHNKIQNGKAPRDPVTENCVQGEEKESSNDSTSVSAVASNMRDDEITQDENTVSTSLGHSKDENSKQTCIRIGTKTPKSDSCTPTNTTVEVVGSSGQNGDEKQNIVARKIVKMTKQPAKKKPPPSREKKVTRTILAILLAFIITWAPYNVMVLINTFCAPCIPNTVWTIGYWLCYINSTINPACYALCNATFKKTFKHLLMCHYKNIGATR

[3] = target: G protein-coupled receptor kinase 4 (Homo sapiens) (UniProt P32298); experiment: Inhibition of recombinant human full length GST-tagged GRK4 expressed in baculovirus expression system at 10 uM in presence of ATP relative to control
Chain of G protein-coupled receptor kinase 4 (Homo sapiens) (P32298 whole entry, looked up): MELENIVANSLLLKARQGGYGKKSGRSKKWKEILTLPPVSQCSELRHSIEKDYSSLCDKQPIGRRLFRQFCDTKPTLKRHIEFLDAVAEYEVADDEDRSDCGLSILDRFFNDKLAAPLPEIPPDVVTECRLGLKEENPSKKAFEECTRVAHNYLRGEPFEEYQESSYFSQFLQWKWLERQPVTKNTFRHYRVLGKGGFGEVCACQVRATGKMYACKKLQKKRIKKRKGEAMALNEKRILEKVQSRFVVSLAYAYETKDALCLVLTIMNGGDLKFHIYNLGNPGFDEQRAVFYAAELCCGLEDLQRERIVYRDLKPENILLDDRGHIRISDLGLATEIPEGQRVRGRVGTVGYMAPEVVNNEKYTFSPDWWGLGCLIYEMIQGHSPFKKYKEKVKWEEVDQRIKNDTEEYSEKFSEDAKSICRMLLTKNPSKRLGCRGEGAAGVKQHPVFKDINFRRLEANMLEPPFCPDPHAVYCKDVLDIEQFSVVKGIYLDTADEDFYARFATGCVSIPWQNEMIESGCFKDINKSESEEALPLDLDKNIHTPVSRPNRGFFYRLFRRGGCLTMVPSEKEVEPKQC

Adenosine receptor A2a = Adenosine receptor A2a (Homo sapiens, UniProt P29274); experiment: Displacement of [3H]-CGS 21680 from human recombinant adenosine A2A receptor at 10 uM after 120 mins by scintillation counting analysis relative to control
[4] = target: Endothelin-1 receptor (Homo sapiens) (UniProt P25101); experiment: Displacement of [125I]-endothelin-1 from human recombinant ETA receptor at 1 uM after 120 mins by scintillation counting analysis relative to control
Chain of Endothelin-1 receptor (Homo sapiens) (P25101 whole entry): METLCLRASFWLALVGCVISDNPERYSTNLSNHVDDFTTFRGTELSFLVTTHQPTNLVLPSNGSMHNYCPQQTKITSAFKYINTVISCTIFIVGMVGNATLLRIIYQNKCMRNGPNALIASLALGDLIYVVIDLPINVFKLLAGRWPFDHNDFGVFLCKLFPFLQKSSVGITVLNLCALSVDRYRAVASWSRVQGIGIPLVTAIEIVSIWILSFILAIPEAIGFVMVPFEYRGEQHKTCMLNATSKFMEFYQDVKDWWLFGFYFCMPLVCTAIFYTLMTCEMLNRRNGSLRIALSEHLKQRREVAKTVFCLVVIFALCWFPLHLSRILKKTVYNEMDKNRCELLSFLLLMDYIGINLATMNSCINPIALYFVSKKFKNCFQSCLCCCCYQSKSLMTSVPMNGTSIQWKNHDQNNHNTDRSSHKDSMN

[5] = target: T1, Delta-type opioid receptor (Homo sapiens, UniProt P41143); experiment: Displacement of [3H]DADLE from human recombinant delta opioid receptor at 1 uM after 60 mins by scintillation counting analysis relative to control
T1 sequence (P41143 whole entry): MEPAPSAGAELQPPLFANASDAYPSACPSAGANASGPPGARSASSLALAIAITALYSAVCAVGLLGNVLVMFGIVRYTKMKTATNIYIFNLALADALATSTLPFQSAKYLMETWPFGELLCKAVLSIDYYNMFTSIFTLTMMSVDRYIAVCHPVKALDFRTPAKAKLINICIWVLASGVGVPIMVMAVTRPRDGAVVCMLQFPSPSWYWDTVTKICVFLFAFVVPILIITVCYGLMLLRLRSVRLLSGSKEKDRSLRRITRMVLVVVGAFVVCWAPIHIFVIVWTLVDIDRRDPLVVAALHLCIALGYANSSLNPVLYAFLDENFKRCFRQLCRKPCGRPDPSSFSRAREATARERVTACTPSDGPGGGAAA

D(1A) dopamine receptor = D(1A) dopamine receptor (Homo sapiens, UniProt P21728); experiment: Displacement of [3H]-SCH 23390 from human recombinant dopamine D1 receptor at 1 uM after 60 mins by scintillation counting analysis relative to control
[6] = target: Adrenergic receptor alpha-2 (Rattus norvegicus) (UniProt P22086+P19328+P22909); experiment: Displacement of [3H]-RX 821002 from rat alpha2 adrenoceptor at 10 uM after 60 mins by scintillation counting analysis relative to control; type: protein assay
[7] = target: 5-hydroxytryptamine receptor 1A (Homo sapiens, UniProt P08908); experiment: Displacement of [3H]8-OH-DPAT from recombinant human 5-HT1A receptor after 60 mins by scintillation counting analysis
Cytochrome P450 2C8 = target: T2, Cytochrome P450 2C8 (Homo sapiens, UniProt P10632); experiment: Inhibition of CYP2C8 (unknown origin); type: ADME
T2 sequence (P10632 whole entry): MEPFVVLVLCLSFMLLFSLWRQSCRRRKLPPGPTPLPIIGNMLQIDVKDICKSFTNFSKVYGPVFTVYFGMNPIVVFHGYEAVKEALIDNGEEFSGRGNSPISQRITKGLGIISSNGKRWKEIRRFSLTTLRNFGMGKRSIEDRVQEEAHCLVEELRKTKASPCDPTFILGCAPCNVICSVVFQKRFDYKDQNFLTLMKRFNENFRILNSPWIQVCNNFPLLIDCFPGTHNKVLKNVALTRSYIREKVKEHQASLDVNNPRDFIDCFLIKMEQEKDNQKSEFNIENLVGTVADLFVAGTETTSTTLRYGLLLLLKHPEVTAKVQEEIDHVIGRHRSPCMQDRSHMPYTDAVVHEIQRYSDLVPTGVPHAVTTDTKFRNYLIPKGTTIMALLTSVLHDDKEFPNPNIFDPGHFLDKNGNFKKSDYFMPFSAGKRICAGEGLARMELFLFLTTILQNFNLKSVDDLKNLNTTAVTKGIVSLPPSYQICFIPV

Rattus norvegicus = species: Rattus norvegicus; experiment: Displacement of [3H]D 888 from rat brain L-type calcium channel verapamil binding site at 1 uM after 120 mins by scintillation counting analysis relative to control
[8] = target: T1, Delta-type opioid receptor; experiment: Displacement of [3H]DADLE from human recombinant delta opioid receptor at 10 uM after 60 mins by scintillation counting analysis relative to control
[9] = target: Aurora kinase B (Homo sapiens) (UniProt Q96GD4); experiment: Inhibition of recombinant full length His-tagged human Aurora B expressed in baculovirus expression system at 10 uM in presence of ATP relative to control
Chain of Aurora kinase B (Homo sapiens) (Q96GD4 whole entry): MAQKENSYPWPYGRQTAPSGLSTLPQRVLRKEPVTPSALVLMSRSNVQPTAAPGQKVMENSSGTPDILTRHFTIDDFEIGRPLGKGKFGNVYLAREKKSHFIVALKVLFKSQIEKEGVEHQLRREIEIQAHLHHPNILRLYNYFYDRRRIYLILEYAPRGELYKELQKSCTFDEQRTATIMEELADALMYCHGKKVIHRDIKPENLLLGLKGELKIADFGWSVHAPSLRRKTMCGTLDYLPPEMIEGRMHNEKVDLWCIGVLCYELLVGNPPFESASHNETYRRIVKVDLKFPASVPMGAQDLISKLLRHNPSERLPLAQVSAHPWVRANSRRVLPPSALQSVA

[10] = target: Muscarinic acetylcholine receptor M3 (Homo sapiens, UniProt P20309); experiment: Displacement of [3H]4-DAMP from human recombinant M3 receptor at 10 uM after 60 mins by scintillation counting analysis relative to control
Homo sapiens = species: Homo sapiens; experiment: Binding affinity to GABA-gated chloride channel (unknown origin) at 10 uM by antagonist radioligand binding assay relative to control
[11] = target: Vasoactive intestinal polypeptide receptor 1 (Homo sapiens) (UniProt P32241); experiment: Displacement of [125I]VIP from human recombinant VPAC1 receptor at 1 uM after 60 mins by scintillation counting analysis relative to control
Chain of Vasoactive intestinal polypeptide receptor 1 (Homo sapiens) (P32241 whole entry, canonical isoform): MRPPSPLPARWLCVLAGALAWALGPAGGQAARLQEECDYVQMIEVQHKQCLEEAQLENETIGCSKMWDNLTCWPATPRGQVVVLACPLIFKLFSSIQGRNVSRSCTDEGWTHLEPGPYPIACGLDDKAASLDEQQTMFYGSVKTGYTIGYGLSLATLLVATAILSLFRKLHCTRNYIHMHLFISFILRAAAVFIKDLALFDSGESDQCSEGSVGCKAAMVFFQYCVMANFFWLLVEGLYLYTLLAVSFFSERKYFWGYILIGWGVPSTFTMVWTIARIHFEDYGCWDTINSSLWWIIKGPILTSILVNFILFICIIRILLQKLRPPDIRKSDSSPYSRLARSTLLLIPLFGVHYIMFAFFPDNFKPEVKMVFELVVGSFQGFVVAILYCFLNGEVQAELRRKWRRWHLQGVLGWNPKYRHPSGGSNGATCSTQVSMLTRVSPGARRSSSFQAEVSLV

[12] = target: Casein kinase I isoform epsilon (Homo sapiens) (UniProt P49674); experiment: Inhibition of CK1epsilon (unknown origin) at 10 uM in presence of ATP relative to control
Chain of Casein kinase I isoform epsilon (Homo sapiens) (P49674 whole entry, looked up, canonical isoform): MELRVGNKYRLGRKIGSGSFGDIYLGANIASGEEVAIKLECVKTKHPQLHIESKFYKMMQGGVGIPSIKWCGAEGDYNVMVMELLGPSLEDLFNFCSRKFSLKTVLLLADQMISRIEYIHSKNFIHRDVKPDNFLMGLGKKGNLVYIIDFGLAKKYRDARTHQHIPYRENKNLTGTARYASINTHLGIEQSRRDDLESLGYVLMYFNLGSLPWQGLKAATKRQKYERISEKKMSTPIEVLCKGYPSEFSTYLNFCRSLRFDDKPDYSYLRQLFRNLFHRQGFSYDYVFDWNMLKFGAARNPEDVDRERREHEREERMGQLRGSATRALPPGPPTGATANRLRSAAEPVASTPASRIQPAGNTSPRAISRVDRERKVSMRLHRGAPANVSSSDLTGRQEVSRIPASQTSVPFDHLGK

[13] = target: 5-hydroxytryptamine receptor 5A (Homo sapiens, UniProt P47898); experiment: Displacement of [3H]LSD from human recombinant 5-HT5a receptor at 10 uM after 120 mins by scintillation counting analysis relative to control
Chain of 5-hydroxytryptamine receptor 5A (P47898 whole entry, the tested form may be a part): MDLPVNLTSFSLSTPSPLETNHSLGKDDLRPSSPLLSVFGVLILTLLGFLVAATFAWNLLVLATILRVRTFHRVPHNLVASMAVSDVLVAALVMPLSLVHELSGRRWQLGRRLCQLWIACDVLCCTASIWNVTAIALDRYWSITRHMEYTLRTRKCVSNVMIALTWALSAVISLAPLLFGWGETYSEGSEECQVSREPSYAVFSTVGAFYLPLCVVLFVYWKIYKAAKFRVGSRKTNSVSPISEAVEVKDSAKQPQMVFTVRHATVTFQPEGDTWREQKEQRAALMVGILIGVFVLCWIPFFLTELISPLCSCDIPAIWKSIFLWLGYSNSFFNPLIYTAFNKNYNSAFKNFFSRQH

[14] = target: T3, Nuclear receptor ROR-beta (Homo sapiens, UniProt Q92753); experiment: Binding affinity to recombinant human RORbeta LBD (201 to 452 residues) expressed in Escherichia coli BL21 (DE3) GOLD by 1,8-ANS dye-based thermofluor assay
T3 sequence (Q92753 whole entry): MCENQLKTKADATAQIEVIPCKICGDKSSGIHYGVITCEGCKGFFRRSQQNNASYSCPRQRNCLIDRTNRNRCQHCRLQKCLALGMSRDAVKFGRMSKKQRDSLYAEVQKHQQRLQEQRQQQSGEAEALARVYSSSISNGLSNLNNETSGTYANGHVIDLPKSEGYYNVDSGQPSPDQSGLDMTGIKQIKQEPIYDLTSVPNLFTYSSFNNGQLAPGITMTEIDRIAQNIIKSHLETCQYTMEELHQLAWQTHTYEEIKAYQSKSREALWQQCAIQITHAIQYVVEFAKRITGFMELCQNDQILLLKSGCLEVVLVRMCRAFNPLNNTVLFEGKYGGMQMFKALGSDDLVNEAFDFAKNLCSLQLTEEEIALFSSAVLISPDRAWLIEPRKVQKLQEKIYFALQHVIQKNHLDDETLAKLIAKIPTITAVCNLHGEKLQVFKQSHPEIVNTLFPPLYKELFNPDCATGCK

[15] = target: 5-hydroxytryptamine receptor 2A (Homo sapiens, UniProt P28223); experiment: Displacement of [3H]ketanserin human recombinant 5-HT2A receptor at 1 uM after 60 mins by scintillation counting analysis relative to control
Melanocortin receptor 4 = Melanocortin receptor 4 (Homo sapiens, UniProt P32245); experiment: Displacement of [125I]NDP-alpha -MSH from human recombinant MC4 receptor at 10 uM after 120 mins by scintillation counting analysis relative to control
Chain of Melanocortin receptor 4 (P32245 whole entry): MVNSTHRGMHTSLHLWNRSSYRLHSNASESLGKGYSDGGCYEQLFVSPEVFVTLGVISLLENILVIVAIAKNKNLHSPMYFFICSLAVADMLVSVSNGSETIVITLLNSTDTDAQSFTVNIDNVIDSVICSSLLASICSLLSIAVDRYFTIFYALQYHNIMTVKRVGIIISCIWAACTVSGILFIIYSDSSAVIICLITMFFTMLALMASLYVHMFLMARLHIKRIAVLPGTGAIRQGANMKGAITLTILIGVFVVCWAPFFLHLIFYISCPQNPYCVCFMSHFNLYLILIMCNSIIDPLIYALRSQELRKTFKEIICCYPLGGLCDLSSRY

[16] = target: Neuropeptide Y receptor type 2 (Homo sapiens, UniProt P49146); experiment: Displacement of [125I]peptide YY from human Y2 receptor after 120 mins by scintillation counting analysis
Chain of Neuropeptide Y receptor type 2 (P49146 whole entry): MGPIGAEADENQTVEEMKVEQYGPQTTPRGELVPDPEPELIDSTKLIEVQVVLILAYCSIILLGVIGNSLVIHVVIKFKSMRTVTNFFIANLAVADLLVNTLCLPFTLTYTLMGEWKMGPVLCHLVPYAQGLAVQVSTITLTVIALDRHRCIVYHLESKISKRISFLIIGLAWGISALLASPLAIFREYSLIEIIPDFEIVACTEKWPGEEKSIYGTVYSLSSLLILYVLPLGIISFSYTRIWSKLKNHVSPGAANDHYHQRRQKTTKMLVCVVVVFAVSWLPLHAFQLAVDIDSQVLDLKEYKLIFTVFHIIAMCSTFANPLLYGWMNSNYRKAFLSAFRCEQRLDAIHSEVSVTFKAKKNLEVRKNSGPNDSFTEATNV

[17] = target: Serine/threonine-protein kinase Nek2 (Homo sapiens) (UniProt P51955); experiment: Inhibition of recombinant full length His-tagged human NEK2 expressed in baculovirus expression system at 10 uM in presence of ATP relative to control

Chain of 5-hydroxytryptamine receptor 7 (P34969 whole entry): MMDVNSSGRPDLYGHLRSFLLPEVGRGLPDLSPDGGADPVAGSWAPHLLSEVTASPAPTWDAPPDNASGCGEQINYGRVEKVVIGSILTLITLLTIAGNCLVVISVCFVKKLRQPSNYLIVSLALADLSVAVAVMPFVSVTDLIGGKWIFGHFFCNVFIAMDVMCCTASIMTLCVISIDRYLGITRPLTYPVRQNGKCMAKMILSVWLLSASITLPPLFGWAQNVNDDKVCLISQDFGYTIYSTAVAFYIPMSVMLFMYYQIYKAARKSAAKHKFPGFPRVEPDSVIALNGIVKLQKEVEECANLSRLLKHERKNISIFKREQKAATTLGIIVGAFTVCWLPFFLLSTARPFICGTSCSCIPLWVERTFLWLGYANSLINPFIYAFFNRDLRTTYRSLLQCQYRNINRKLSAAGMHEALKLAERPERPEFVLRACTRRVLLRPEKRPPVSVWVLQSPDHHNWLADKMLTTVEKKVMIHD

SMILES: CC(C)(C)NS(=O)(=O)c1ccc(-c2sc(C(=O)N[C@H]3C[C@H](C(=O)O)C3)nc2CC2CCCCC2)c2ccccc12
- inhibition [1]: < 10%
- inhibition [2]: 12%
- inhibition [3]: -3%
- inhibition (Adenosine receptor A2a): 20%
- inhibition [4]: < 10%
- inhibition [5]: 12%
- inhibition (D(1A) dopamine receptor): < 10%
- inhibition [6]: < 10%
- IC50 [7]: 0.43 nM
- INH (Cytochrome P450 2C8): 3.8 µM
- inhibition (Rattus norvegicus): < 10%
- inhibition [8]: 22%
- inhibition [9]: 8%
- inhibition [10]: 23%
- inhibition (Homo sapiens): 86%
- inhibition [11]: < 10%
- inhibition [12]: 4%
- inhibition [13]: 85%
- Kd [14]: 740 nM
- inhibition [15]: < 10%
- inhibition (Melanocortin receptor 4): 25%
- IC50 [16]: 0.28 nM
- inhibition [17]: -6%
